Measured values reported in patent US20120148595A1, “GABA-LINKED ANTHRACYCLINE-LIPID CONJUGATES” (Luitpold Pharmaceuticals, Inc., priority 2009, published 2012).
Values after ≈ are worked out from the molar mass of the structure shown. Values joined by “and” are separate entries in the source; they are usually repeats but may differ in a detail not shown here. Equal values may be shown once. “Also recorded” adds a separate entry of the source. Read-outs that look alike come from different tables or passages of the source.

Assays:
[1] = Stability in mouse serum/plasma at 37° C., HPLC; type: in vitro ADME
Protocol: […] Serum samples added with only ethanol/Cremophor® were used as controls.
Aliquots (100 μL) were taken from the spiked samples at 0, 1, 4, 8 and 24 h time intervals. Proteins were precipitated from the spiked solutions by the addition of 300 μL of acetonitrile. The suspensions were centrifuged and the supernatant transferred to separate microfuge tubes. The precipitate was washed twice with 300 μL of 90% acetonitrile. The wash solutions were combined with the supernatant and evaporated to dryness using a Centrivap Concentrator. The residue was then dissolved in 100 μL of methanol. Vortex mixing and sonication for 30 sec each were used to help dissolve the residue. The solution was then centrifuged at 10,000 rpm for 15 min. A 20 μL aliquot of the supernatant was analyzed by HPLC (Phenomenex column, C18, 250×4.6 mm, 5 u) using the following gradient conditions: […]
UV detection: 487 nm; column temperature: 40° C.; flow rate: 1 mL/min. Analytes were quantitated by comparison of peak areas from direct injections of standard solutions with those obtained from samples subjected to the extraction procedure. The percent recovery of spiked analytes was calculated by comparison of the sample peak areas before incubation (time: 0 h) with those subjected to incubation at 37° C. […]

[2] = system: Madison 109 (M109) mouse lung carcinoma
Protocol: In all of the following in vivo experiments, the parent compound, doxorubicin, was injected intravenously (i.v.) in saline, while the fatty acid conjugates of doxorubicin were injected i.v. in 10% Cremophor® EL-P/10% ethanol/80% saline. The dosing schedule was Q3D×5.
T-C in this assay is defined as the time in days for the drug-treated tumors to double their mass three times subtracted […] to double their mass three times.

HT-29 human colon tumor = test: nude mouse xenograft model of the HT-29 human colon tumor; type: in vivo; conditions: for Complete Regressions / Days Delay T-C / Drug-related Deaths: nude mouse
Protocol: (§1) The dosing schedule was Q3D×5.
In the nude mouse xenograft model of the HT-29 human colon tumor (Table 3), doxorubicin produced a T-C delay of 15.3 days at the MTD dose of 6 mg/kg, whereas P-367 (LOC-GABA-doxorubicin) produced a T-C delay of 32 days at 50 mg/kg and 22 at 25 mg/kg. Note that the activity of the lowest dose of LOC-GABA-doxorubicin is approximately equivalent to the highest, MTD of doxorubicin itself.

[3] = Solubility in solvents/excipients; type: physicochemical
From the text: Table 7 summarizes the solubility of LOC-GABA-doxorubicin in several solvents.

[4] = Toxicology: maximum tolerated dose, i.v. Q3D×5; conditions: mouse, in vivo, iv; i.v. 5 times on a once every three day schedule
From the text: as §1

tumor growth = test: anti-tumor activity of GABA-linked conjugate compared to the unconjugated anticancer agent (model not given); type: in vivo; conditions: model not specified
From the text: The anti-tumor activity of LOC-GABA-doxorubicin was studied in three tumor models.

[5] = system: MDA-MB-435 human breast tumor; test: nude mouse xenograft model of the MDA-MB-435 human breast tumor; type: in vivo; conditions: for Complete Regressions / Days Delay T-C / Drug-related Deaths: nude mouse
Protocol: as §1
In the nude mouse xenograft model of the MDA-MB-435 human breast tumor (Table 4), doxorubicin produced a T-C delay of 14 days at the approximate MTD dose of 6 mg/kg (1/10 drug-related deaths). In the same model, LOC-GABA-doxorubicin produced a T-C delay of 13 days at 50 mg/kg (6/10 drug-related deaths) and 1.5 days at 25 mg/kg (0 drug-related deaths).

M109-Lung Tumor = M109-Lung Tumor Model (Table 5, second study with OOC-GABA-doxorubicin); type: in vivo, mouse
From the text: as §1

With CCCCC/C=C\C/C=C\CCCCCCCCOC(=O)NCCCC(=O)N[C@H]1C[C@H](O[C@H]2C[C@](O)(C(=O)CO)Cc3c(O)c4c(c(O)c32)C(=O)c2c(OC)cccc2C4=O)O[C@@H](C)[C@H]1O [LOC-GABA-doxorubicin, linoleyl alcohol-GABA-doxorubicin] the “time stable in mouse plasma” value ([1]; 10 mg/mL formulation pH 7.5, 10 parts to 90 parts plasma) was “more than 8 hours”, the drug still present ([1]; mouse plasma, 24 hours) was “over 90%” and the “Drug-related Deaths” value ([2]; 50 mg/kg i.v. Q3D×5) was 0/5. For the same compound, the “Tumor Growth Delay T-C” value ([2]; 50 mg/kg i.v. Q3D×5) was 28 days, the “Complete Regressions” value ([2]; 75 mg/kg i.v. Q3D×5) was 0 and the “Drug-related Deaths” value ([2]; 75 mg/kg i.v. Q3D×5) was 0/5. The “Tumor Growth Delay T-C” value ([2]; 75 mg/kg i.v. Q3D×5) was 25 days, the “Complete Regressions” value ([2]; 100 mg/kg i.v. Q3D×5) was 0 and the “Drug-related Deaths” value ([2]; 100 mg/kg i.v. Q3D×5) was 4/5. For the same compound, the “Complete Regressions” value ([2]; 150 mg/kg i.v. Q3D×5) was 0, the “Drug-related Deaths” value ([2]; 150 mg/kg i.v. Q3D×5) was 4/5 and the “Complete Regressions” value (HT-29 human colon tumor; 12.5 mg/kg i.v. Q3D×5) was 0. For the same compound, the “Days Delay T-C” value (HT-29 human colon tumor; 12.5 mg/kg i.v. Q3D×5) was 5.4 days, the “Drug-related Deaths” value (HT-29 human colon tumor; 12.5 mg/kg i.v. Q3D×5) was 0/10 and the “Complete Regressions” value (HT-29 human colon tumor; 25 mg/kg i.v. Q3D×5) was 0. For the same compound, the “Days Delay T-C” value (HT-29 human colon tumor; 25 mg/kg i.v. Q3D×5) was 22 days, the “Drug-related Deaths” value (HT-29 human colon tumor; 25 mg/kg i.v. Q3D×5) was 0/10 and the “Complete Regressions” value (HT-29 human colon tumor; 50 mg/kg i.v. Q3D×5) was 0. The “Days Delay T-C” value (HT-29 human colon tumor; 50 mg/kg i.v. Q3D×5) was 32 days, the “Drug-related Deaths” value (HT-29 human colon tumor; 50 mg/kg i.v. Q3D×5) was 0/10 and the “Complete Regressions” value (HT-29 human colon tumor; 75 mg/kg i.v. Q3D×5) was 0. The “Days Delay T-C” value (HT-29 human colon tumor; 75 mg/kg i.v. Q3D×5) was 34 days, the “Drug-related Deaths” value (HT-29 human colon tumor; 75 mg/kg i.v. Q3D×5) was 6/10 and the “anti-tumor activity compared to doxorubicin” value (HT-29 human colon tumor; HT29 human colon carcinoma xenograft) was “activity superior to doxorubicin; also recorded: superior anti-tumor activity”. It also gave a solubility ([3]; aqueous with cosolvent or surfactant or cyclodextrin, Cremophor ® EL-P:ethanol:saline (10:10:80)) of 16.8 mg/mL (≈ 18.2 mM), a solubility ([3]; dimethyl isosorbide (DMI), organic solvent or mixture) of 490 mg/mL (≈ 533 mM) and a solubility ([3]; ethanol, organic solvent or mixture) of 252 mg/mL (≈ 274 mM). The MTD [4] was 50 to 75 mg/kg, the “anti-tumor activity compared to the unconjugated drug” value (tumor growth) was “superior” and the “Complete Regressions” value ([5]; 12.5 mg/kg i.v. Q3D×5) was 0. For the same compound, the “Days Delay T-C” value ([5]; 12.5 mg/kg i.v. Q3D×5) was -2.0 days, the “Drug-related Deaths” value ([5]; 12.5 mg/kg i.v. Q3D×5) was 0/10 and the “Complete Regressions” value ([5]; 25 mg/kg i.v. Q3D×5) was 0. The “Days Delay T-C” value ([5]; 25 mg/kg i.v. Q3D×5) was 1.5 days, the “Drug-related Deaths” value ([5]; 25 mg/kg i.v. Q3D×5) was 0 and 0/10 and the “Complete Regressions” value ([5]; 50 mg/kg i.v. Q3D×5) was 0. The “Days Delay T-C” value ([5]; 50 mg/kg i.v. Q3D×5) was 13 days, the “Drug-related Deaths” value ([5]; 50 mg/kg i.v. Q3D×5) was 6/10 and the “Complete Regressions” value ([5]; 75 mg/kg i.v. Q3D×5) was 0. The “Days Delay T-C” value ([5]; 75 mg/kg i.v. Q3D×5) was 21 days, the “Drug-related Deaths” value ([5]; 75 mg/kg i.v. Q3D×5) was 9/10 and the “anti-tumor activity compared to doxorubicin” value ([5]; MDA-MB-435 human breast carcinoma xenograft) was “active, but somewhat less active than doxorubicin and somewhat less efficacious than doxorubicin and not”. The “Complete Regressions” value (M109-Lung Tumor; 35 mg/kg i.v. Q3D×5) was 0, the “Days Delay T-C” value (M109-Lung Tumor; 35 mg/kg i.v. Q3D×5) was 1.1 days and the “Drug-related Deaths” value (M109-Lung Tumor; 35 mg/kg i.v. Q3D×5) was 0/5. The “Complete Regressions” value (M109-Lung Tumor; 50 mg/kg i.v. Q3D×5) was 0, the “Days Delay T-C” value (M109-Lung Tumor; 50 mg/kg i.v. Q3D×5) was 5.2 days and the “Drug-related Deaths” value (M109-Lung Tumor; 50 mg/kg i.v. Q3D×5) was 0/5. For the same compound, the “Complete Regressions” value (M109-Lung Tumor; 65 mg/kg i.v. Q3D×5) was 0, the “Days Delay T-C” value (M109-Lung Tumor; 65 mg/kg i.v. Q3D×5) was 9.3 days and the “Drug-related Deaths” value (M109-Lung Tumor; 65 mg/kg i.v. Q3D×5) was 0/5. The “Complete Regressions” value (M109-Lung Tumor; 80 mg/kg i.v. Q3D×5) was 0, the “Days Delay T-C” value (M109-Lung Tumor; 80 mg/kg i.v. Q3D×5) was 9.5 days and the “Drug-related Deaths” value (M109-Lung Tumor; 80 mg/kg i.v. Q3D×5) was 0/5.

For CCCCCCCC/C=C\CCCCCCCCOC(=O)NCCCC(=O)N[C@H]1C[C@H](O[C@H]2C[C@](O)(C(=O)CO)Cc3c(O)c4c(c(O)c32)C(=O)c2c(OC)cccc2C4=O)O[C@@H](C)[C@H]1O [OOC-GABA-doxorubicin, oleyl alcohol-GABA-doxorubicin], the “Complete Regressions” value (M109-Lung Tumor; 50 mg/kg i.v. Q3D×5) was 0, the “Days Delay T-C” value (M109-Lung Tumor; 50 mg/kg i.v. Q3D×5) was 10.0 days and the “Drug-related Deaths” value (M109-Lung Tumor; 50 mg/kg i.v. Q3D×5) was 0/5. The “Complete Regressions” value (M109-Lung Tumor; 75 mg/kg i.v. Q3D×5) was 0, the “Days Delay T-C” value (M109-Lung Tumor; 75 mg/kg i.v. Q3D×5) was 8.9 days and the “Drug-related Deaths” value (M109-Lung Tumor; 75 mg/kg i.v. Q3D×5) was 0/5. For the same compound, the “Complete Regressions” value (M109-Lung Tumor; 100 mg/kg i.v. Q3D×5) was 0, the “Days Delay T-C” value (M109-Lung Tumor; 100 mg/kg i.v. Q3D×5) was 10.3 days and the “Drug-related Deaths” value (M109-Lung Tumor; 100 mg/kg i.v. Q3D×5) was 1/5. The “Complete Regressions” value (M109-Lung Tumor; 125 mg/kg i.v. Q3D×5) was 0, the “Drug-related Deaths” value (M109-Lung Tumor; 125 mg/kg i.v. Q3D×5) was 3/5 and the “anti-tumor activity compared to doxorubicin” value (M109-Lung Tumor; M109 mouse lung carcinoma model) was “superior anti-tumor activity”.
